From the supplement of paper PMC10627819

Tests used:
S. aureus Newman [1] = assay: Bliss interaction score (quartile over a dose matrix) (fitness difference); higher = more antagonism (negative = synergy)
Procedure, shortened: (§1)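 The Bliss score takes observed fitness and subtracts the expected fitness, calculated as a product of single-drug fitness values. Those single-drug values were inferred from the combination data. Fitness is OD595 at entry into stationary phase divided by the plate's robust no-drug mean, capped at 1, and the score is summarised by quartiles across technical, biological and donor/recipient replicates.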

S. aureus DSM 20231 [2] = assay: as above
Procedure, shortened: as §1

B. subtilis 168 [3] = assay: as above
Procedure, shortened: as §1

S. pneumoniae D39V [4] = assay: as above
Procedure, shortened: as §1

S. aureus Newman [5] = assay: fitness (endpoint OD595 vs no drug) (fraction); higher = more growth
Procedure, shortened: (§2)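 Each well of a 384-well plate received 30 µl of culture at OD595 0.01, or 55 µl for S. pneumoniae. TSB, LB Lennox or CY served as media at 37 °C. OD595 was taken every 30 min for 14 h and corrected by subtracting the first reading. Fitness is the optical density at stationary-phase entry divided by the robust mean of no-drug controls, capped at 1.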

S. aureus DSM 20231 [6] = assay: as above
Procedure, shortened: as §2

B. subtilis 168 [7] = assay: as above
Procedure, shortened: as §2

S. pneumoniae D39V [8] = assay: as above
Procedure, shortened: as §2
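Throughout, for Bliss interaction score (quartile over a dose matrix): first quartile when negative (synergy) and third quartile when positive (antagonism).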

CCC[C@@H]1C[C@@H](C(=O)N[C@@H]([C@H]2O[C@H](SC)[C@H](O)[C@@H](O)[C@H]2O)[C@H](C)Cl)N(C)C1 [Clindamycin] + CN[C@@H]1[C@H](O)[C@H](NC)[C@H]2O[C@@]3(O)C(=O)C[C@@H](C)O[C@H]3O[C@@H]2[C@H]1O [Spectinomycin]
Details	Bliss interaction score
B. subtilis 168 [3]	-0.0853
S. aureus DSM 20231 [2]	-0.0511
S. aureus Newman [1]	-0.147
S. pneumoniae D39V [4]	0.0544

fitness
Details	partner 2 µg/mL	partner 4 µg/mL	partner 8 µg/mL	partner 16 µg/mL
B. subtilis 168 [7], first compound 0.0625 µg/mL	0.508	0.46	0.383	–
B. subtilis 168 [7], first compound 0.125 µg/mL	0.37	0.365	0.251	–
B. subtilis 168 [7], first compound 0.25 µg/mL	0.363	0.327	0.155	–
S. aureus DSM 20231 [6], first compound 0.125 µg/mL	–	0.0615	0.0809	0.0399
S. aureus Newman [5], first compound 0.0312 µg/mL	–	0.564	0.579	0.466
S. aureus Newman [5], first compound 0.125 µg/mL	–	0.0748	0.109	0.0841
S. pneumoniae D39V [8], first compound 0.0125 µg/mL	–	0.672	0.656	0.601
S. pneumoniae D39V [8], first compound 0.025 µg/mL	–	0.457	0.409	0.396
S. pneumoniae D39V [8], first compound 0.05 µg/mL	–	0.248	0.231	0.19

one replicate
Details	fitness
B. subtilis 168 [7], first compound 0.0039 µg/mL, partner 2 µg/mL	0.988
B. subtilis 168 [7], first compound 0.0039 µg/mL, partner 4 µg/mL	0.98
B. subtilis 168 [7], first compound 0.0039 µg/mL, partner 8 µg/mL	≥ 1
B. subtilis 168 [7], first compound 0.0078 µg/mL, partner 2 µg/mL	0.897
B. subtilis 168 [7], first compound 0.0078 µg/mL, partner 4 µg/mL	0.898
B. subtilis 168 [7], first compound 0.0078 µg/mL, partner 8 µg/mL	0.904
B. subtilis 168 [7], first compound 0.0156 µg/mL, partner 2 µg/mL	0.904
B. subtilis 168 [7], first compound 0.0156 µg/mL, partner 4 µg/mL	0.903
B. subtilis 168 [7], first compound 0.0156 µg/mL, partner 8 µg/mL	0.851
S. aureus DSM 20231 [6], first compound 0.0312 µg/mL, partner 32 µg/mL	0.105
S. aureus DSM 20231 [6], first compound 0.0312 µg/mL, partner 64 µg/mL	0.0235
S. aureus DSM 20231 [6], first compound 0.0625 µg/mL, partner 32 µg/mL	0.0623
S. aureus DSM 20231 [6], first compound 0.0625 µg/mL, partner 64 µg/mL	0.0291
S. aureus DSM 20231 [6], first compound 0.125 µg/mL, partner 32 µg/mL	0.0592
S. aureus DSM 20231 [6], first compound 0.125 µg/mL, partner 64 µg/mL	0.0326
S. aureus Newman [5], first compound 0.0312 µg/mL, partner 32 µg/mL	0.0927
S. aureus Newman [5], first compound 0.0312 µg/mL, partner 64 µg/mL	0.0581
S. aureus Newman [5], first compound 0.0625 µg/mL, partner 32 µg/mL	0.0269
S. aureus Newman [5], first compound 0.0625 µg/mL, partner 64 µg/mL	0.0621
S. aureus Newman [5], first compound 0.125 µg/mL, partner 32 µg/mL	0.0191
S. aureus Newman [5], first compound 0.125 µg/mL, partner 64 µg/mL	0.0457
S. pneumoniae D39V [8], first compound 0.015 µg/mL, partner 4 µg/mL	0.935
S. pneumoniae D39V [8], first compound 0.015 µg/mL, partner 8 µg/mL	0.899
S. pneumoniae D39V [8], first compound 0.03 µg/mL, partner 4 µg/mL	0.765
S. pneumoniae D39V [8], first compound 0.03 µg/mL, partner 8 µg/mL	0.754
S. pneumoniae D39V [8], first compound 0.06 µg/mL, partner 4 µg/mL	0.657
S. pneumoniae D39V [8], first compound 0.06 µg/mL, partner 8 µg/mL	0.671

CCC[C@@H]1C[C@@H](C(=O)N[C@@H]([C@H]2O[C@H](SC)[C@H](O)[C@@H](O)[C@H]2O)[C@H](C)Cl)N(C)C1 [Clindamycin] + COc1c(N2C[C@@H]3CCCN[C@@H]3C2)c(F)cc2c(=O)c(C(=O)O)cn(C3CC3)c12 [Moxifloxacin]
Details	Bliss interaction score
B. subtilis 168 [3]	0.041
S. aureus DSM 20231 [2]	0.0751
S. aureus Newman [1]	0.0705
S. pneumoniae D39V [4]	0.0859

Details	fitness
B. subtilis 168 [7], first compound 0.0625 µg/mL, partner 0.0312 µg/mL	0.0693
B. subtilis 168 [7], first compound 0.0625 µg/mL, partner 0.0625 µg/mL	0.0631
B. subtilis 168 [7], first compound 0.0625 µg/mL, partner 0.125 µg/mL	0.046
B. subtilis 168 [7], first compound 0.0625 µg/mL, partner 2 µg/mL	0.0362
B. subtilis 168 [7], first compound 0.0625 µg/mL, partner 4 µg/mL	0.0401
B. subtilis 168 [7], first compound 0.0625 µg/mL, partner 8 µg/mL	0.0456
B. subtilis 168 [7], first compound 0.125 µg/mL, partner 0.0312 µg/mL	0.0619
B. subtilis 168 [7], first compound 0.125 µg/mL, partner 0.0625 µg/mL	0.0693
B. subtilis 168 [7], first compound 0.125 µg/mL, partner 0.125 µg/mL	0.0534
B. subtilis 168 [7], first compound 0.125 µg/mL, partner 2 µg/mL	0.0368
B. subtilis 168 [7], first compound 0.125 µg/mL, partner 4 µg/mL	0.0309
B. subtilis 168 [7], first compound 0.125 µg/mL, partner 8 µg/mL	0.0299
B. subtilis 168 [7], first compound 0.25 µg/mL, partner 0.0312 µg/mL	0.0478
B. subtilis 168 [7], first compound 0.25 µg/mL, partner 0.0625 µg/mL	0.0597
B. subtilis 168 [7], first compound 0.25 µg/mL, partner 0.125 µg/mL	0.0484
B. subtilis 168 [7], first compound 0.25 µg/mL, partner 2 µg/mL	0.0444
B. subtilis 168 [7], first compound 0.25 µg/mL, partner 4 µg/mL	0.0401
B. subtilis 168 [7], first compound 0.25 µg/mL, partner 8 µg/mL	0.0192
S. aureus DSM 20231 [6], first compound 0.0625 µg/mL, partner 0.0075 µg/mL	0.0874
S. aureus DSM 20231 [6], first compound 0.0625 µg/mL, partner 0.015 µg/mL	0.0867
S. aureus DSM 20231 [6], first compound 0.125 µg/mL, partner 0.0075 µg/mL	0.0621
S. aureus DSM 20231 [6], first compound 0.125 µg/mL, partner 0.015 µg/mL	0.0276
S. aureus DSM 20231 [6], first compound 0.125 µg/mL, partner 0.03 µg/mL	0.0423
S. aureus Newman [5], first compound 0.0312 µg/mL, partner 0.0075 µg/mL	0.63
S. aureus Newman [5], first compound 0.0312 µg/mL, partner 0.015 µg/mL	0.553
S. aureus Newman [5], first compound 0.0625 µg/mL, partner 0.015 µg/mL	0.361
S. aureus Newman [5], first compound 0.0625 µg/mL, partner 0.03 µg/mL	0.251
S. aureus Newman [5], first compound 0.125 µg/mL, partner 0.0075 µg/mL	0.111
S. aureus Newman [5], first compound 0.125 µg/mL, partner 0.015 µg/mL	0.0621
S. aureus Newman [5], first compound 0.125 µg/mL, partner 0.03 µg/mL	0.0456
S. pneumoniae D39V [8], first compound 0.0125 µg/mL, partner 0.0312 µg/mL	0.182
S. pneumoniae D39V [8], first compound 0.0125 µg/mL, partner 0.0625 µg/mL	0.0996
S. pneumoniae D39V [8], first compound 0.0125 µg/mL, partner 0.125 µg/mL	0.0702
S. pneumoniae D39V [8], first compound 0.015 µg/mL, partner 0.005 µg/mL	0.87
S. pneumoniae D39V [8], first compound 0.015 µg/mL, partner 0.01 µg/mL	0.932
S. pneumoniae D39V [8], first compound 0.015 µg/mL, partner 0.02 µg/mL	0.88
S. pneumoniae D39V [8], first compound 0.025 µg/mL, partner 0.0312 µg/mL	0.13
S. pneumoniae D39V [8], first compound 0.025 µg/mL, partner 0.0625 µg/mL	0.107
S. pneumoniae D39V [8], first compound 0.025 µg/mL, partner 0.125 µg/mL	0.067
S. pneumoniae D39V [8], first compound 0.03 µg/mL, partner 0.005 µg/mL	0.778
S. pneumoniae D39V [8], first compound 0.03 µg/mL, partner 0.01 µg/mL	0.798
S. pneumoniae D39V [8], first compound 0.03 µg/mL, partner 0.02 µg/mL	0.744
S. pneumoniae D39V [8], first compound 0.05 µg/mL, partner 0.0312 µg/mL	0.0658
S. pneumoniae D39V [8], first compound 0.05 µg/mL, partner 0.0625 µg/mL	0.0748
S. pneumoniae D39V [8], first compound 0.05 µg/mL, partner 0.125 µg/mL	0.0719
S. pneumoniae D39V [8], first compound 0.06 µg/mL, partner 0.005 µg/mL	0.627
S. pneumoniae D39V [8], first compound 0.06 µg/mL, partner 0.01 µg/mL	0.674
S. pneumoniae D39V [8], first compound 0.06 µg/mL, partner 0.02 µg/mL	0.606

fitness, one replicate
Details	first compound 0.0039 µg/mL	first compound 0.0078 µg/mL	first compound 0.0156 µg/mL	first compound 0.0312 µg/mL	first compound 0.0625 µg/mL	first compound 0.125 µg/mL
B. subtilis 168 [7], partner 0.0312 µg/mL	0.73	0.575	0.5	–	–	–
B. subtilis 168 [7], partner 0.0625 µg/mL	0.061	0.05	0.0579	–	–	–
B. subtilis 168 [7], partner 0.125 µg/mL	0.0192	0.0118	0.0291	–	–	–
S. aureus DSM 20231 [6], partner 0.06 µg/mL	–	–	–	0.628	0.628	0.109
S. aureus DSM 20231 [6], partner 0.12 µg/mL	–	–	–	0.515	0.516	0.0784
